The values below come from patent US8124653B2, “Methods and compositions for the treatment of attention deficit hyperactivity disorder and hyperphenylalanemia” (The Board of Regents of The University of Texas System, priority 2004, dated 2012).

One data set relates to PKU afflicted mice. Put plainly: Levels of metabolites in mouse brain following BH4 and 6-methyl BH4 treatment, PKU mice. It is filed as in vivo. Conditions: for 3OMD level in brain / 5HT level in brain / DA level in brain / DOPAC level in brain / HIAA level in brain / HVA level in brain / MPHG level in brain: PKU mice, single dose IM 100 mg/kg, after 1 hr, one line per animal. The method, then:
(§1) To comparatively investigate the CNS effects of BH4 and methyl BH4, we used mice both with and without PKU. A single dose of either compound was given IM, 100 mg/kg to PKU afflicted and normal mice, with control groups receiving buffer only. After 1 hr, a time sufficient to observe changes in brain chemistry, the mice were sacrificed, and brains were sent out for analysis of 3-O-methyldopa (“3OMD”), 5-hydroxytryptamine ([…]) (serotonin), dihydroxybenzoic acid (“DHBA”), dopamine (“DA”), dihydroxyphenylacetic acid (“DOPAC”), hydroxyindoleacetic acid (“HIAA”), homovanilic acid (“HVA”), and methoxyhydroxyphenylglycol (“MPHG”) levels.

A further data set concerns normal mice. As to the kind of experiment: Levels of metabolites in mouse brain following BH4 and 6-methyl BH4 treatment, normal mice. The following applies: Non PKU mice, single dose IM 100 mg/kg, after 1 hr; one line per animal. It is filed as in vivo. The method, then: as §1
The subject of data set [1] is release of neurotransmitter amines. Conditions: U.S. Pat. No. 5,606,020 to Watanabe et al.; cited from earlier work.
The test system of another data set is PKU patients. As to the kind of experiment: Single oral BH4 dose in PKU patients, blood Phe and tyrosine response (Example 1). It is filed as in vivo, human. Conditions: single oral 10 mg/kg, responder = Phe reduction 25% or greater with tyrosine increase 25% or greater within 24 hours. The method, then:
PKU patients were administered a single oral dose of 10 mg/kg BH4, and blood levels of both Phe and tyrosine were monitored at 0, 4, 8, 24 hours post-dose. In this regard, it should be noted that this is half the dose administered by previous investigators.

The next data set has as its system patients with PKU. Put plainly: Oral BH4 loading in patients with PKU, blood Phe and tyrosine by tandem MS/MS (Example 2). It is filed as in vivo, human. The method, then: This study included 15 males and 10 females with PKU. There were 13 subjects with “classical” PKU (based on blood Phe levels greater than 20 mg/dL) and 12 with “atypical” PKU (blood Phe 6.0-20 mg/dL). The mean age of the subjects was 16.6 years with a range from 6 months to 43 years. All subjects were on a restricted Phe diet, except four subjects with atypical PKU, who had discontinued diet treatment. […] Tetrahydrobiopterin (BH4) was obtained from Schircks Laboratories, Jena, Switzerland. The subjects were given BH4 10 mg/kg or 20 mg/kg by mouth after baseline blood Phe and tyrosine were drawn. Blood Phe and tyrosine were taken at 4, 8, and 24 hours and determined using tandem MS/MS (Neogen).

Several values for one entry are separate records, joined by “and”; a condition that tells them apart may be missing. Equal values may be shown once.

For the compound `CC1CNc2nc(N)[nH]c(=O)c2N1` (centres unmarked) [6-Me BH4, 6-methyl-tetrahydropterin], in the data set on PKU afflicted mice (PKU and normal mice, IM 100 mg/kg, 1 hr, summary of Tables 5 and 6), the “Overall effect on CNS chemistry, compared with BH4” value was “greater effect on CNS chemistry”. In the data set on PKU afflicted mice, the “3OMD level in brain” value is 0.39 nmol/g wet weight and 0.26 nmol/g wet weight and 0.17 nmol/g wet weight and 0.47 nmol/g wet weight and 77.7 nmol/l and 51.9 nmol/l and 34.9 nmol/l and 94.1 nmol/l; the “5HT level in brain” value was 0.20 nmol/g wet weight and 0.15 nmol/g wet weight and 0.28 nmol/g wet weight and 0.24 nmol/g wet weight and 40.0 nmol/l and 30.0 nmol/l and 56.7 nmol/l and 47.6 nmol/l; the “DA level in brain” value is 10.16 nmol/g wet weight and 7.14 nmol/g wet weight and 6.46 nmol/g wet weight and 7.27 nmol/g wet weight and 2031.2 nmol/l and 1427.4 nmol/l and 1292.6 nmol/l and 1454.4 nmol/l; the “DOPAC level in brain” value is 0.51 nmol/g wet weight and 0.40 nmol/g wet weight and 0.52 nmol/g wet weight and 0.48 nmol/g wet weight and 101.7 nmol/l and 80.6 nmol/l and 104.5 nmol/l and 95.6 nmol/l. Further, in the data set on PKU afflicted mice, the “HIAA level in brain” value is 1.70 nmol/g wet weight and 1.03 nmol/g wet weight and 1.64 nmol/g wet weight and 1.41 nmol/g wet weight and 340.4 nmol/l and 205.6 nmol/l and 328.1 nmol/l and 282.2 nmol/l; the “HVA level in brain” value was 1.18 nmol/g wet weight and 0.94 nmol/g wet weight and 0.92 nmol/g wet weight and 0.91 nmol/g wet weight and 236.9 nmol/l and 187.2 nmol/l and 184.5 nmol/l and 182.1 nmol/l; the “MPHG level in brain” value was 0.36 nmol/g wet weight and 0.26 nmol/g wet weight and 0.32 nmol/g wet weight and 0.18 nmol/g wet weight and 71.2 nmol/l and 52.1 nmol/l and 63.2 nmol/l and 36.3 nmol/l. Further, the “Ability to traverse the blood brain barrier, as compared to BH4” value in the data set with PKU afflicted mice (inferred from brain metabolite levels, PKU and normal mice) is “better ability to traverse the blood brain barrier”. For the same compound, in the data set with normal mice, the “3OMD level in brain” value is 0.57 nmol/g wet weight and 0.29 nmol/g wet weight and 0.36 nmol/g wet weight and 0.44 nmol/g wet weight and 114.5 nmol/l and 87.7 nmol/l and 58.2 nmol/l and 71.7 nmol/l; the “5HT level in brain” value is 1.07 nmol/g wet weight and 1.31 nmol/g wet weight and 1.21 nmol/g wet weight and 1.11 nmol/g wet weight and 214.3 nmol/l and 222.6 nmol/l and 261.1 nmol/l and 242.3 nmol/l; the “DA level in brain” value is 10.86 nmol/g wet weight and 10.26 nmol/g wet weight and 11.50 nmol/g wet weight and 10.56 nmol/g wet weight and 2172.4 nmol/l and 2112.1 nmol/l and 2051.2 nmol/l and 2300.5 nmol/l; the “DOPAC level in brain” value is 0.61 nmol/g wet weight and 0.65 nmol/g wet weight and 0.66 nmol/g wet weight and 0.59 nmol/g wet weight and 121.6 nmol/l and 118.9 nmol/l and 129.6 nmol/l and 132.5 nmol/l. Besides, in the data set with normal mice, the “HIAA level in brain” value was 3.09 nmol/g wet weight and 3.56 nmol/g wet weight and 3.65 nmol/g wet weight and 3.22 nmol/g wet weight and 617.3 nmol/l and 643.9 nmol/l and 712.0 nmol/l and 730.5 nmol/l; the “HVA level in brain” value is 1.26 nmol/g wet weight and 0.99 nmol/g wet weight and 1.20 nmol/g wet weight and 1.28 nmol/g wet weight and 252.9 nmol/l and 256.9 nmol/l and 197.1 nmol/l and 240.6 nmol/l; the “MPHG level in brain” value was 0.31 nmol/g wet weight and 0.26 nmol/g wet weight and 0.30 nmol/g wet weight and 0.29 nmol/g wet weight and 62.9 nmol/l and 58.9 nmol/l and 51.2 nmol/l and 59.7 nmol/l.

For the compound `C[C@H](O)[C@H](O)[C@H]1CNc2nc(N)[nH]c(=O)c2N1` [6R-BH4], the “Release and liberation of neurotransmitter amines such as dopamine, norepinephrine and serotonin” value in data set [1] is “enhances the release and liberation of neurotransmitter amines”.

As for `C[C@H](O)[C@H](O)[C@H]1CNc2nc(N)[nH]c(=O)c2N1` [BH4, Tetrahydrobiopterin], in the data set on PKU patients (Atypical PKU, blood Phe 6-20 mg/dl, 9 subjects), the “Number of Responders” value is 9. Besides, in the data set with PKU patients (Classic PKU, blood Phe 20-50 mg/dl, 6 subjects), the “Number of Responders” value is reported as 0. Further, the “Number of classical PKU subjects who responded to BH4” value in the data set on patients with PKU (13 subjects with classical PKU (blood Phe greater than 20 mg/dL)) was determined as 6. Further, the “Drop in blood Phe level” value in the data set with patients with PKU (non-responding patients with R261Q allele challenged again with 20 mg/kg BH4) was 10%. For the same compound, in the data set on patients with PKU (responders, after BH4 loading), the “Mean decline in blood Phe” value turned out to be 53.7%. In addition, the “Mean blood Phe level after BH4 loading” value in the data set with patients with PKU (responders, prior to BH4 12.2 mg/dL) is 6.6 mg/dL. Besides, the Mean blood Phe level after BH4 loading in the data set with patients with PKU (responders, prior to BH4 732 mmol/L, unit of the source corrected) stood at 396 µM. In the data set on PKU afflicted mice, the “3OMD level in brain” value is 0.48 nmol/g wet weight and 0.16 nmol/g wet weight and 0.09 nmol/g wet weight and 0.55 nmol/g wet weight and 95.1 nmol/l and 32.9 nmol/l and 18.2 nmol/l and 110.4 nmol/l; the “5HT level in brain” value is 0.16 nmol/g wet weight and 0.23 nmol/g wet weight and 0.15 nmol/g wet weight and 0.24 nmol/g wet weight and 31.5 nmol/l and 45.7 nmol/l and 30.4 nmol/l and 48.3 nmol/l; the “DA level in brain” value is 6.28 nmol/g wet weight and 9.48 nmol/g wet weight and 6.91 nmol/g wet weight and 8.08 nmol/g wet weight and 1256.0 nmol/l and 1896.3 nmol/l and 1382.2 nmol/l and 1616.2 nmol/l; the “DOPAC level in brain” value was 0.40 nmol/g wet weight and 0.53 nmol/g wet weight and 0.51 nmol/g wet weight and 0.37 nmol/g wet weight and 80.9 nmol/l and 105.7 nmol/l and 101.0 nmol/l and 73.1 nmol/l. In the data set on PKU afflicted mice, the “HIAA level in brain” value was 0.91 nmol/g wet weight and 1.68 nmol/g wet weight and 0.94 nmol/g wet weight and 1.45 nmol/g wet weight and 181.1 nmol/l and 336.9 nmol/l and 188.0 nmol/l and 290.6 nmol/l; the “HVA level in brain” value was 0.80 nmol/g wet weight and 1.04 nmol/g wet weight and 0.77 nmol/g wet weight and 0.94 nmol/g wet weight and 160.6 nmol/l and 207.0 nmol/l and 153.6 nmol/l and 188.7 nmol/l; the “MPHG level in brain” value is 0.18 nmol/g wet weight and 0.21 nmol/g wet weight and 0.26 nmol/g wet weight and 0.16 nmol/g wet weight and 35.2 nmol/l and 42.9 nmol/l and 51.6 nmol/l and 31.6 nmol/l. Moreover, in the data set with normal mice, the “3OMD level in brain” value is 0.58 nmol/g wet weight and 0.27 nmol/g wet weight and 0.60 nmol/g wet weight and 0.41 nmol/g wet weight and 115.6 nmol/l and 53.3 nmol/l and 119.7 nmol/l and 81.1 nmol/l; the “5HT level in brain” value is 1.27 nmol/g wet weight and 1.21 nmol/g wet weight and 1.16 nmol/g wet weight and 1.53 nmol/g wet weight and 253.5 nmol/l and 242.3 nmol/l and 231.2 nmol/l and 305.2 nmol/l; the “DA level in brain” value was 9.06 nmol/g wet weight and 9.56 nmol/g wet weight and 9.63 nmol/g wet weight and 9.93 nmol/g wet weight and 1811.4 nmol/l and 1912.5 nmol/l and 1926.7 nmol/l and 1985.9 nmol/l; the “DOPAC level in brain” value is 0.68 nmol/g wet weight and 0.62 nmol/g wet weight and 0.72 nmol/g wet weight and 0.79 nmol/g wet weight and 136.6 nmol/l and 124.4 nmol/l and 143.4 nmol/l and 158.6 nmol/l. Moreover, in the data set on normal mice, the “HIAA level in brain” value was 3.49 nmol/g wet weight and 3.23 nmol/g wet weight and 3.19 nmol/g wet weight and 3.58 nmol/g wet weight and 697.5 nmol/l and 646.1 nmol/l and 638.7 nmol/l and 716.9 nmol/l; the “HVA level in brain” value was 1.08 nmol/g wet weight and 1.09 nmol/g wet weight and 1.22 nmol/g wet weight and 1.18 nmol/g wet weight and 216.9 nmol/l and 217.7 nmol/l and 243.0 nmol/l and 236.6 nmol/l; the “MPHG level in brain” value is 0.36 nmol/g wet weight and 0.30 nmol/g wet weight and 0.40 nmol/g wet weight and 0.33 nmol/g wet weight and 72.5 nmol/l and 60.6 nmol/l and 80.2 nmol/l and 66.7 nmol/l.
